Assay results reported in patent publication US10597388B2, “Pyridazinone herbicides” (FMC CORPORATION, priority 2014, dated 2020).

Experiments:
Assay in all cases: Test D controlled growth environment herbicide test, pre- and postemergence
Format in all cases: in vivo
[1] = system: barley, winter (winter barley, Hordeum vulgare)
Summary of the method: (§1)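 Rating is visual, 0–100 scale (100 = complete control), made against untreated plants 14–21 d after treatment in controlled growth conditions. Postemergence sprays went onto 1- to 4-leaf plants in peat medium; preemergence sprays onto silt loam after sowing; formulation included a surfactant.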

[2] = system: blackgrass (Alopecurus myosuroides)
Summary of the method: as §1

[3] = system: bromegrass, downy (downy bromegrass, Bromus tectorum)
Summary of the method: as §1

[4] = system: buckwheat, wild (wild buckwheat, Polygonum convolvulus)
Summary of the method: as §1

[5] = system: canarygrass (Phalaris minor)
Summary of the method: as §1

[6] = system: chamomile (scentless chamomile, Matricaria inodora)
Summary of the method: as §1

[7] = system: chickweed (common chickweed, Stellaria media)
Summary of the method: as §1

[8] = system: field poppy (Papaver rhoeas)
Summary of the method: as §1

[9] = system: galium (catchweed bedstraw, Galium aparine)
Summary of the method: as §1

[10] = system: lambsquarters (Chenopodium album)
Summary of the method: as §1

[11] = system: oilseed rape (Brassica napus)
Summary of the method: as §1

[12] = system: ryegrass, Italian (Italian ryegrass, Lolium multiflorum)
Summary of the method: as §1

[13] = system: speedwell (bird's-eye speedwell, Veronica persica)
Summary of the method: as §1

[14] = Postemergence, 31 g ai/ha, scale 0 to 100 (0 no effect, 100 complete control)
[15] = Postemergence, 125 g ai/ha, visual rating on scale 0 (no effect) to 100 (complete control), 14 to 21 d
[16] = Postemergence, 250 g ai/ha, scale 0 to 100 (0 no effect, 100 complete control)
[17] = Preemergence, 62 g ai/ha, scale 0 to 100 (0 no effect, 100 complete control)
[18] = Preemergence, 125 g ai/ha, scale 0 to 100 (0 no effect, 100 complete control)
[19] = Preemergence, 250 g ai/ha, scale 0 to 100 (0 no effect, 100 complete control)
[20] = postemergence, 62 g ai/ha, scale 0 to 100, 0 no effect, 100 complete control

CC(=O)Oc1c(Br)nn(C)c(=O)c1-c1c(C)ccc2ccccc12 [Compound 129]
0: Plant response rating (scale of 0 to 100), Barley, Winter ([1]; Preemergence, 31 g ai/ha) | Plant response rating, Barley, Winter [1, 17] | Plant response rating, Barley, Winter [1, 18] | Plant response rating (scale of 0 to 100), Buckwheat, Wild ([4]; Preemergence, 31 g ai/ha) | Plant response rating (scale of 0 to 100), Oilseed Rape ([11]; Preemergence, 31 g ai/ha)
75: Plant response rating, Blackgrass [2, 16] | Plant response rating, Blackgrass [2, 19] | Plant response rating, Canarygrass [5, 15] | Plant response rating, Field Poppy [8, 20] | Plant response rating (scale of 0 to 100), Galium ([9]; Preemergence, 31 g ai/ha) | Lambsquarters plant response rating [10, 14] | Plant response rating (scale of 0 to 100), Lambsquarters ([10]; Preemergence, 62 g ai/ha) | Plant response rating, Speedwell [13, 16]
80: Plant response rating, Bromegrass, Downy [3, 16] | Plant response rating, Bromegrass, Downy [3, 19] | Plant response rating, Canarygrass [5, 16] | Plant response rating, Field Poppy [8, 15] | Ryegrass, Italian plant response rating [12, 14] | Plant response rating (scale of 0 to 100), Ryegrass, Italian ([12]; Preemergence, 62 g ai/ha)
25: Bromegrass, Downy plant response rating [3, 14]
5: Plant response rating (scale of 0 to 100), Canarygrass ([5]; Preemergence, 31 g ai/ha) | Oilseed Rape plant response rating [11, 14] | Plant response rating, Oilseed Rape [11, 20]
90: Plant response rating, Canarygrass [5, 19] | Plant response rating (scale of 0 to 100), Field Poppy ([8]; Preemergence, 31 g ai/ha) | Galium plant response rating [9, 14] | Plant response rating (scale of 0 to 100), Galium ([9]; Preemergence, 62 g ai/ha) | Plant response rating, Galium [9, 18] | Plant response rating, Lambsquarters [10, 20] | Plant response rating, Ryegrass, Italian [12, 15] | Plant response rating, Ryegrass, Italian [12, 16] | Plant response rating (scale of 0 to 100), Speedwell ([13]; Preemergence, 31 g ai/ha)
60: Plant response rating, Blackgrass [2, 15] | Plant response rating, Canarygrass [5, 18] | Plant response rating, Speedwell [13, 20]
45: Plant response rating, Blackgrass [2, 20]
40: Plant response rating, Bromegrass, Downy [3, 20]
35: Plant response rating, Barley, Winter [1, 16] | Blackgrass plant response rating [2, 14] | Speedwell plant response rating [13, 14]
10: Barley, Winter plant response rating [1, 14] | Plant response rating, Barley, Winter [1, 19] | Plant response rating (scale of 0 to 100), Blackgrass ([2]; Preemergence, 31 g ai/ha)
55: Plant response rating, Blackgrass [2, 18] | Plant response rating, Canarygrass [5, 20] | Plant response rating, Oilseed Rape [11, 18]
20: Plant response rating, Barley, Winter [1, 20]
100: Buckwheat, Wild plant response rating [4, 14] | Plant response rating, Buckwheat, Wild [4, 15] | Plant response rating, Buckwheat, Wild [4, 16] | Plant response rating, Buckwheat, Wild [4, 20] | Chamomile plant response rating [6, 14] | Plant response rating, Chamomile [6, 15] | Plant response rating, Chamomile [6, 16] | Plant response rating (scale of 0 to 100), Chamomile ([6]; Preemergence, 31 g ai/ha) | Plant response rating (scale of 0 to 100), Chamomile ([6]; Preemergence, 62 g ai/ha) | Plant response rating, Chamomile [6, 18] | Plant response rating, Chamomile [6, 19] | Chickweed plant response rating [7, 14] | Plant response rating, Chickweed [7, 15] | Plant response rating, Chickweed [7, 16] | Plant response rating (scale of 0 to 100), Chickweed ([7]; Preemergence, 62 g ai/ha) | Plant response rating, Chickweed [7, 19] | Plant response rating, Chickweed [7, 20] | Plant response rating, Field Poppy [8, 18] | Plant response rating, Field Poppy [8, 19] | Plant response rating, Galium [9, 15] | Plant response rating, Galium [9, 16] | Plant response rating, Galium [9, 20] | Plant response rating, Lambsquarters [10, 16] | Plant response rating (scale of 0 to 100), Lambsquarters ([10]; Preemergence, 31 g ai/ha) | Plant response rating, Lambsquarters [10, 18] | Plant response rating, Lambsquarters [10, 19] | Plant response rating, Oilseed Rape [11, 19] | Plant response rating, Ryegrass, Italian [12, 19] | Plant response rating (scale of 0 to 100), Speedwell ([13]; Preemergence, 62 g ai/ha) | Plant response rating, Speedwell [13, 18] | Plant response rating, Speedwell [13, 19]
15: Plant response rating, Blackgrass [2, 17] | Plant response rating (scale of 0 to 100), Bromegrass, Downy ([3]; Preemergence, 31 g ai/ha) | Plant response rating, Bromegrass, Downy [3, 17] | Plant response rating (scale of 0 to 100), Canarygrass ([5]; Preemergence, 62 g ai/ha) | Plant response rating, Oilseed Rape [11, 15] | Plant response rating (scale of 0 to 100), Oilseed Rape ([11]; Preemergence, 62 g ai/ha)
98: Plant response rating, Chamomile [6, 20] | Plant response rating (scale of 0 to 100), Chickweed ([7]; Preemergence, 31 g ai/ha) | Plant response rating, Chickweed [7, 18] | Plant response rating, Field Poppy [8, 16] | Plant response rating (scale of 0 to 100), Field Poppy ([8]; Preemergence, 62 g ai/ha) | Plant response rating, Ryegrass, Italian [12, 18]
30: Plant response rating, Barley, Winter [1, 15] | Plant response rating, Buckwheat, Wild [4, 17] | Canarygrass plant response rating [5, 14]
65: Plant response rating, Bromegrass, Downy [3, 15] | Plant response rating, Bromegrass, Downy [3, 18] | Plant response rating, Speedwell [13, 15]
85: Plant response rating, Buckwheat, Wild [4, 18] | Plant response rating, Buckwheat, Wild [4, 19] | Plant response rating, Ryegrass, Italian [12, 20]
70: Field Poppy plant response rating [8, 14] | Plant response rating, Oilseed Rape [11, 16] | Plant response rating (scale of 0 to 100), Ryegrass, Italian ([12]; Preemergence, 31 g ai/ha)
95: Plant response rating, Galium [9, 19] | Plant response rating, Lambsquarters [10, 15]
